Source: article PMC6522510 (Nature Communications, 2019)
Where a name gives a salt, the structure may show the parent alone. Read-outs that look alike come from different tables or passages of the source.

Columns and labels:
Set-up in all cases: species or system AML cell lines (8); Primary HTS, single concentration about 10 uM, Cell Titer Glo viability; log10 luminescence, per cent inhibition relative to cycloheximide control
Conditions in all cases: 72 h, inhibitor
CHRF288-11 = tested on: CHRF288-11
CMK = tested on: CMK
CMS = tested on: CMS
M07e = tested on: M07e
ML-2 = tested on: ML-2
MOLM-13 = tested on: MOLM-13
MV4-11 = tested on: MV4-11
U937 = tested on: U937
[1] = relative to cycloheximide control, log10 luminescence
[2] = relative to cycloheximide control, log10 luminescence, CHRF288-11 %inh, 10 µM
[3] = relative to cycloheximide control, log10 luminescence, CMK %inh, 10 µM
[4] = relative to cycloheximide control, log10 luminescence, CMS %inh, 10 µM
[5] = relative to cycloheximide control, log10 luminescence, M07e %inh, 10 µM
[6] = relative to cycloheximide control, log10 luminescence, ML-2 %inh, 10 µM
[7] = relative to cycloheximide control, log10 luminescence, MOLM-13 %inh, 10 µM
[8] = relative to cycloheximide control, log10 luminescence, MV4-11 %inh, 10 µM
[9] = relative to cycloheximide control, log10 luminescence, U937 %inh, 10 µM

Compound | CHRF288-11 %inh (CHRF288-11; [1]) [%] | CMK %inh (CMK; [1]) [%] | CMS %inh (CMS; [1]) [%] | M07e %inh (M07e; [1]) [%] | ML-2 %inh (ML-2; [1]) [%] | MOLM-13 %inh (MOLM-13; [1]) [%] | MV4-11 %inh (MV4-11; [1]) [%] | U937 %inh (U937; [1]) [%] | CHRF288-11 %inh (CHRF288-11; [2]) [%] | CMK %inh (CMK; [3]) [%] | CMS %inh (CMS; [4]) [%] | M07e %inh (M07e; [5]) [%] | ML-2 %inh (ML-2; [6]) [%] | MOLM-13 %inh (MOLM-13; [7]) [%] | MV4-11 %inh (MV4-11; [8]) [%] | U937 %inh (U937; [9]) [%] | further results
CN(C)CCC=C1c2ccccc2C=Cc2ccccc21 [SJ000285960-7, CYCLOBENZAPRINE HYDROCHLORIDE] | 66.65 | 3.38 | -1.125 | 2.233 | 3.717 | -2.604 | 2.11 | 7.437 |  |  |  |  |  |  |  |  | 
CCn1cc(C(=O)O)c(=O)c2cc(F)c(N3CCNCC3)nc21 [SJ000285962-4, ENOXACIN] | 7.607 | 15.64 | 4.313 | 7.045 | 32.21 | -2.8 | 40.28 | -0.8348 |  |  |  |  |  |  |  |  | 
CC(=O)/N=c1/sc(S(N)(=O)=O)nn1C [SJ000285971-4, METHAZOLAMIDE] |  |  |  |  |  |  |  |  | -2.381 | -8.28 | -3.008 | -2.489 | 1.069 | 1.468 | -0.9248 | -0.6609 | 
CC(=O)/N=c1/sc(S(N)(=O)=O)nn1C [SJ000285971-5, METHAZOLAMIDE] |  |  |  |  |  |  |  |  | -3.176 | -2.598 | -3.489 | -1.211 | 3.001 | 0.5424 | -3.681 | -1.329 | 
COc1ccc(OC)c(C(O)CNC(=O)CN)c1 (centres unmarked) [SJ000285975-4, MIDODRINE HYDROCHLORIDE] | 5.586 | -2.727 | -2.587 | 0.8303 | 3.423 | -0.9656 | 0.5881 | -2.394 |  |  |  |  |  |  |  |  | 
CC(=O)CCCCn1c(=O)c2c(ncn2C)n(C)c1=O [SJ000285992-7, PENTOXIFYLLINE] | -2.356 | 2.352 | -0.2539 | -1.002 | -1.777 | 0.7772 | 4.085 | -1.659 |  |  |  |  |  |  |  |  | 
CCC(=O)O[C@]1(C(=O)CCl)[C@@H](C)C[C@H]2[C@@H]3CCC4=CC(=O)C=C[C@]4(C)[C@@]3(F)[C@@H](O)C[C@@]21C [SJ000286006-4, CLOBETASOL PROPIONATE] | 12.55 | 12.78 | 4.642 | 3.893 | 4.272 | 8.361 | 4.125 | 16.72 |  |  |  |  |  |  |  |  | 
OCCN1CCN(CCCN2c3ccccc3Sc3ccc(Cl)cc32)CC1 [SJ000286016-7, PERPHENAZINE] |  |  |  |  |  |  |  |  | -1.811 | 1.286 | 1.171 | 0.915 | -0.4093 | -1.496 | 1.352 | -2.208 | 
OCCN1CCN(CCCN2c3ccccc3Sc3ccc(Cl)cc32)CC1 [SJ000286016-8, PERPHENAZINE] |  |  |  |  |  |  |  |  | 40.76 | 10.21 | 3.223 | 5.089 | 2.921 | 2.324 | 2.594 | 5.279 | 
OC(Cn1cncn1)(Cn1cncn1)c1ccc(F)cc1F [SJ000286024-3, FLUCONAZOLE] | -3.189 | -0.02108 | -4.097 | -2.445 | -1.511 | -1.868 | 0.2312 | 1.624 |  |  |  |  |  |  |  |  | 
CC[C@H]1OC(=O)[C@H](C)[C@@H](O[C@H]2C[C@@](C)(OC)[C@@H](O)[C@H](C)O2)[C@H](C)[C@@H](O[C@@H]2O[C@H](C)C[C@H](N(C)C)[C@H]2O)[C@](C)(O)C[C@@H](C)[C@@H]2N[C@@H](COCCOC)O[C@H]([C@H]2C)[C@]1(C)O [SJ000286040-4, DIRITHROMYCIN] |  |  |  |  |  |  |  |  |  |  |  |  |  |  |  |  | CHRF288-11 %inh (CHRF288-11; 10 µM): 3.605%; CMK %inh (CMK; 10 µM): -6.058%; CMS %inh (CMS; 10 µM): -2.389%; M07e %inh (M07e; 10 µM): -2.158%; ML-2 %inh (ML-2; 10 µM): 0.363%; MOLM-13 %inh (MOLM-13; 10 µM): 5.018%; MV4-11 %inh (MV4-11; 10 µM): -1.547%; U937 %inh (U937; 10 µM): 3.436%
CC[C@H]1OC(=O)[C@H](C)[C@@H](O[C@H]2C[C@@](C)(OC)[C@@H](O)[C@H](C)O2)[C@H](C)[C@@H](O[C@@H]2O[C@H](C)C[C@H](N(C)C)[C@H]2O)[C@](C)(O)C[C@@H](C)[C@@H]2N[C@@H](COCCOC)O[C@H]([C@H]2C)[C@]1(C)O [SJ000286040-5, DIRITHROMYCIN] |  |  |  |  |  |  |  |  |  |  |  |  |  |  |  |  | CHRF288-11 %inh (CHRF288-11; 10 µM): 3.137%; CMK %inh (CMK; 10 µM): -5.982%; CMS %inh (CMS; 10 µM): -0.1114%; M07e %inh (M07e; 10 µM): -2.366%; ML-2 %inh (ML-2; 10 µM): -0.7146%; MOLM-13 %inh (MOLM-13; 10 µM): -2.496%; MV4-11 %inh (MV4-11; 10 µM): -3.548%; U937 %inh (U937; 10 µM): -1.919%
CC[C@H]1OC(=O)[C@H](C)[C@@H](O[C@H]2C[C@@](C)(OC)[C@@H](O)[C@H](C)O2)[C@H](C)[C@@H](O[C@@H]2O[C@H](C)C[C@H](N(C)C)[C@H]2O)[C@](C)(OC)C[C@@H](C)C(=O)[C@H](C)[C@@H](O)[C@]1(C)O [SJ000286061-3, CLARITHROMYCIN] |  |  |  |  |  |  |  |  | -0.08051 | 1.841 | -1.005 | 0.43 | 2.326 | 2.582 | 1.904 | 1.585 | 
CC[C@H]1OC(=O)[C@H](C)[C@@H](O[C@H]2C[C@@](C)(OC)[C@@H](O)[C@H](C)O2)[C@H](C)[C@@H](O[C@@H]2O[C@H](C)C[C@H](N(C)C)[C@H]2O)[C@](C)(OC)C[C@@H](C)C(=O)[C@H](C)[C@@H](O)[C@]1(C)O [SJ000286061-4, CLARITHROMYCIN] |  |  |  |  |  |  |  |  | 4.27 | -0.3654 | 4.035 | 4.017 | -1.428 | 0.6227 | 1.784 | 1.816 | 
COc1c(N2CCNC(C)C2)c(F)cc2c(=O)c(C(=O)O)cn(C3CC3)c12 (centres unmarked) [SJ000286066-3, GATIFLOXACIN] | 7.116 | 1.598 | -1.278 | 0.9683 | 1.743 | 8.563 | -0.7209 | 2.127 |  |  |  |  |  |  |  |  | 
CC(=O)OCC(CCn1cnc2cnc(N)nc21)COC(C)=O [SJ000286077-3, FAMCICLOVIR] | -0.6265 | 3.857 | 3.04 | -1.801 | -0.1732 | 3.343 | 1.495 | 2.68 |  |  |  |  |  |  |  |  | 
O=C1[C@H](CC[C@H](O)c2ccc(F)cc2)[C@@H](c2ccc(O)cc2)N1c1ccc(F)cc1 [SJ000286078-3, EZETIMIBE] | 8.692 | 3.95 | 1.706 | 4.29 | 2.139 | 5.807 | 0.198 | 5.441 |  |  |  |  |  |  |  |  | 
C=CC1=C(C(=O)O)N2C(=O)[C@@H](NC(=O)/C(=N\O)c3csc(N)n3)[C@H]2SC1 [SJ000286082-3] | 4.774 | 1.925 | 3.32 | 3.525 | 2.212 | 11.38 | 0.05121 | 3.234 |  |  |  |  |  |  |  |  | 
CCCCC(=O)N(Cc1ccc(-c2ccccc2-c2nnn[nH]2)cc1)[C@H](C(=O)O)C(C)C [SJ000286083-3] |  |  |  |  |  |  |  |  | 2.31 | -2.006 | 1.896 | -3.413 | 1.672 | -0.1457 | -0.8771 | 1.517 | 
